Source: patent US20210128680A1, “METHOD FOR TREATING CARDIOPULMONARY DISORDER” (Chang Gung University, priority 2019, published 2021)
“Also recorded” adds a separate entry of the source.

Columns and labels:
MCT PASMCs [1] = assay: BrdU incorporation cell proliferation assay, MCT PASMCs; type: cell-based, rat; settings: FIG. 5 panel B
Description: (§1) PASMCs were isolated from lungs of MCT-treated or control rats using the explant method, as described previously (Lai Y J et al. Am J Respir Crit Care Med. 2008, 178(2):188-96). To culture PASMCs, the PA was dissected from lung and cardiac tissues. The pulmonary arterial tissue was cut into small pieces and suspended in Dulbecco's modified Eagle's medium (DMEM) (Gibco) containing 100 U/mL penicillin, 100 µg/mL streptomycin (Gibco), and 20% fetal bovine serum (FBS) (Gibco). We observed a decrease in desmin, a smooth muscle cell gene marker, at passage 3. Therefore, rat PASMCs were used before passage 3 for all of the in vitro experiments. Characterization of PASMCs was performed by immunocytochemical staining with anti-α-SM-actin (Sigma-Aldrich) and anti-desmin (NeoMakers) antibodies.
(§2) The proliferative activity of PASMCs and the effects of the lumikine were determined by an ELISA-based 5-bromo-2-deoxyuridine (BrdU) incorporation assay kit (Roche Diagnostics Co.) according to the manufacturer's instructions.
(§3) Proliferation of PASMC is critical to the development of PAH. To characterize whether lumikine affected the proliferation of PASMCs in PAH and non-PAH subjects, the PASMCs were isolated from rats with or without MCT induced PAH.

hypoxia-induced PAH mice = assay: Hypoxia-induced PAH mice: RV hypertrophy and pulmonary artery medial wall thickness; type: in vivo; settings: for right ventricular (RV) weight (RV/LV+S ratio): hypoxia (10% O2) mice, 3 ng/kg/day, 28 days, FIG. 6 panel A
Description: Adult male Sprague-Dawley rats (200-250 g in body weight) were randomized assigned into two groups for treatment of 28 days after s.c. injection of saline or 60 mg/kg monocrotaline (MCT) (Sigma-Aldrich) to induce pulmonary hypertension (PH). Rats were examined after 3 weeks of treatment (on day 28). Hypoxic pulmonary vascular remodeling was induced by exposure of mice (8-week-old C57BL/6) to chronic hypoxia (10% 02) in a ventilated chamber, as described previously (Li H H et al. Am J Physiol Lung Cell Mol Physiol. 2017: ajplung 00245 2017). The chronic effects of lumikne were assessed in mice exposed to hypoxia for 28 days. Briefly, animals were kept in hypoxic conditions to develop pulmonary hypertension. […] All animal experimental protocols were reviewed and approved by the Chang Gung University IACUC. This study was carried out in strict accordance with the recommendations in the Guide for the Care and Use of Laboratory Animals of the National Institutes of Health. Housing and maintenance was provided by Chang Gung University, and all animals were fed a standard chow diet with free access to water. After sacrifice, the RV wall was separated from the LV wall and ventricular septum. Wet weight of the RV, free LV wall, and ventricular septum was determined and weighted. RV hypertrophy was expressed as the ratio of weight of the RV wall and that of the free LV wall and ventricular septum (LV+S). Fixation was performed by immersion of the lungs in a 10% paraformaldehyde solution. For paraffin embedding, the entire lungs were dissected in tissue blocks from all lobes. Sectioning at 5 μm was performed from all paraffin-embedded blocks. To assess the type of remodeling of muscular pulmonary arteries, the percentage of MWT was utilized to characterize vascular medial hypertrophy by α-SM-actin staining. Under 400× microscopic examination, MWT was defined as the distance between the internal and external elastic laminae using “ImageJ” software downloaded from the open source available from the internet. […]

human PASMCs = assay: Western blot of protein expression in human PASMCs under in vitro hypoxia; type: cell-based
Description: Human PASMCs were obtained from commercial sources (Lonza). Cells were grown in SMC growth medium (5% FBS, 1 μg/ml hydrocortisone, 10 ng/ml human epidermal growth factor, 3 ng/ml basic fibroblast growth factor, 10 μg/ml heparin, 10 μg/ml gentamycin, and 0.25 μg/ml amphotericin) (Lonza) and were used between passages 4 and 7. Cells were starved in SMC medium with 0.1% FBS for 24 h before the experiment. Human PASMCs were cultured in the TGF-β 2.5 ng/ml condition for 6 hours to determine the effect of lumikine on the protein expressions.
Human PASMCs were cultured in the hypoxic condition for 24 hours to determine the effect of lumikine on the protein expressions. Hypoxia was created in an incubator: 5% CO2+94% N2+[…], 37° C. Lumikine were dissolved in culture medium at a final concentration of 100 nM.
Tissue samples or cell samples were homogenized in lysis buffer containing 50 mM Tris-HCl, pH 7.4, 50 mM NaCl, 5 mM EDTA, 1% Triton X-100, 0.05% SDS, 50 mM NaF, 10 mM β-glycerophosphate, sodium pyrophosphate, 100 μM Na3VO4, and protease inhibitor cocktail (Calbiochem, Millipore). Immunoblotting was performed using anti-lumican (Abcam; 1:2000), ant-HIF-1α(Abeam; 1:1000), anti-p-AKT, or AKT (Cell Signaling; 1:1000), and anti-p-SMAD2 (Cell Signaling; 1:1000), as primary antibodies. Secondary antibodies specific for peroxidase-conjugated anti-mouse IgG (Jackson; 1:10000) or anti-rabbit IgG (Jackson; 1:10000) were used as needed. Blots were visualized using an enhanced chemi-luminescence detection system (Millipore). Samples were normalized to GAPDH (Santa Cruz; 1:10000) and quantified by densitometry.
In this example, in vitro hypoxic (1% oxygen) model was used to evaluate the effect of the present synthetic peptide—lumikine (SEQ ID NO: 2) on pulmonary arterial smooth muscle cell (PASMCs).

MCT PASMCs [2] = assay: pAKT expression in MCT PASMCs; type: cell-based, rat
Description: as §1
Tissue samples or cell samples were homogenized in lysis buffer containing 50 mM Tris-HCl, pH 7.4, 50 mM NaCl, 5 mM EDTA, 1% Triton X-100, 0.05% SDS, 50 mM NaF, 10 mM β-glycerophosphate, sodium pyrophosphate, 100 μM Na3VO4, and protease inhibitor cocktail (Calbiochem, Millipore). […] Blots were visualized using an enhanced chemi-luminescence detection system (Millipore). Samples were normalized to GAPDH (Santa Cruz; 1:10000) and quantified by densitometry.

control (CON) PASMCs = assay: BrdU incorporation cell proliferation assay, control PASMCs; type: cell-based, rat; settings: compared with vehicle treatment, FIG. 5
Description: as §1, §2, §3

Compound | effect on lumikine inhibition of MCT PASMC proliferation (MCT PASMCs [1]; H89 with lumikine (100 nM)) | right ventricular (RV) weight (RV/LV+S ratio) (hypoxia-induced PAH mice) | right ventricular (RV) weight (RV/LV+S ratio) (hypoxia-induced PAH mice; listed as Lumikine) | medial wall thickness (MWT) of the pulmonary artery (hypoxia-induced PAH mice; hypoxia mice, 3 ng/kg/day for 21 days (days 8-28), PAs 25-100 μm, FIG. 6 panel B) | serum-induced PASMC proliferation (MCT PASMCs [1]; 10% FBS) | level of lumican (human PASMCs; lumikine 100 nM, hypoxic condition 24 hours, FIG. 4 panel B) | level of HIF-1α (human PASMCs; lumikine 100 nM, hypoxic condition 24 hours, FIG. 4 panel C) | level of pSmad3 (human PASMCs; lumikine 100 nM, hypoxic condition 24 hours, FIG. 4 panel D) | level of pAKT (human PASMCs; lumikine 100 nM, hypoxic condition 24 hours, FIG. 4 panel E) | Smad4 (human PASMCs; lumikine treatment, hypoxic condition, FIG. 4F) | pAKT expression (MCT PASMCs [2]) | proliferation of control PASMCs (control (CON) PASMCs)
O=S(=O)(NCCNC/C=C/c1ccc(Br)cc1)c1cccc2cnccc12 [H89, reference compound] | reversed | – | – | – | – | – | – | – | – | – | – | –
lumikine: synthetic peptide X1EX2LRVANEVTLN (SEQ ID NO: 1) in which X1 is tyrosine (Y) and X2 is alanine (A) (YEALRVANEVTLN) | – | significantly reduced | reduction | significantly reduction | dose-dependently decrease; also recorded: inhibited significantly | increase | reduction | reduction | reduction | remained unaffected | reduced | no significantly effects; also recorded: did not affect
